Reference: ChEMBL document CHEMBL3431459, “Roche carnitine palmitoyltransferase modulator screening data (supplementary data associated with the publication CHEMBL2216752)”
≈ marks a conversion by molar mass, not a printed value.

Assays:
[1] = biological target: T1, Carnitine O-palmitoyltransferase 1, muscle isoform (Homo sapiens, UniProt Q92523); assay: SUPPLEMENTARY: Inhibition of Carnitine palmitoyltransferase 1, muscle isoform; design: species or system Muscle tissue
T1 sequence (Q92523 whole entry): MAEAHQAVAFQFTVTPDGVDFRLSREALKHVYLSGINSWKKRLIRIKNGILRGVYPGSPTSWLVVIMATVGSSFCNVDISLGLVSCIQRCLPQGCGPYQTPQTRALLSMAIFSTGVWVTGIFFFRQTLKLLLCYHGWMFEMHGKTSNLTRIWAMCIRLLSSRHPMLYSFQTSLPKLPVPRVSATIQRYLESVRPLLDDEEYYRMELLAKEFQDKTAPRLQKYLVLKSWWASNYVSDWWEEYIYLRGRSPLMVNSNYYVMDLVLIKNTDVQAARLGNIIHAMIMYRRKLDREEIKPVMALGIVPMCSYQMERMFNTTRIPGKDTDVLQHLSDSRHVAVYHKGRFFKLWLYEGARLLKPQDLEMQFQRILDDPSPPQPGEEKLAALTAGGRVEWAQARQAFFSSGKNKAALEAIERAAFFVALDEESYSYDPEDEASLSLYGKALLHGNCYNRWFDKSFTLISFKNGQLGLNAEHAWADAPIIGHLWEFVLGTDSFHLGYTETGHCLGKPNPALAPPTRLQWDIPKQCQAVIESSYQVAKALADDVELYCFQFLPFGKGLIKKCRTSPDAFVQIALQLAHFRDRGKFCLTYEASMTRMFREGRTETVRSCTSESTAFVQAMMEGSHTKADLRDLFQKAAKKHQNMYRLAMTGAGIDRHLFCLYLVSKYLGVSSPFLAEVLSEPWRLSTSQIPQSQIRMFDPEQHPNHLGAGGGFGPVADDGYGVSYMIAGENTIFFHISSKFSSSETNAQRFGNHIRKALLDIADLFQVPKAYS

[2] = SUPPLEMENTARY: Lipophilicity (log D) Determination by high-throughput shake-flask; format: physicochemical; conditions: octanol/water
[3] = SUPPLEMENTARY: Lyophilisation Solubility Assay (LYSA); format: physicochemical; conditions: read-out: Kinetic_solubility
[4] = biological target: T2, Carnitine O-palmitoyltransferase 2, mitochondrial (Homo sapiens, UniProt P23786); assay: (§1) SUPPLEMENTARY: Inhibition of Carnitine palmitoyltransferase 2
T2 sequence (P23786 whole entry): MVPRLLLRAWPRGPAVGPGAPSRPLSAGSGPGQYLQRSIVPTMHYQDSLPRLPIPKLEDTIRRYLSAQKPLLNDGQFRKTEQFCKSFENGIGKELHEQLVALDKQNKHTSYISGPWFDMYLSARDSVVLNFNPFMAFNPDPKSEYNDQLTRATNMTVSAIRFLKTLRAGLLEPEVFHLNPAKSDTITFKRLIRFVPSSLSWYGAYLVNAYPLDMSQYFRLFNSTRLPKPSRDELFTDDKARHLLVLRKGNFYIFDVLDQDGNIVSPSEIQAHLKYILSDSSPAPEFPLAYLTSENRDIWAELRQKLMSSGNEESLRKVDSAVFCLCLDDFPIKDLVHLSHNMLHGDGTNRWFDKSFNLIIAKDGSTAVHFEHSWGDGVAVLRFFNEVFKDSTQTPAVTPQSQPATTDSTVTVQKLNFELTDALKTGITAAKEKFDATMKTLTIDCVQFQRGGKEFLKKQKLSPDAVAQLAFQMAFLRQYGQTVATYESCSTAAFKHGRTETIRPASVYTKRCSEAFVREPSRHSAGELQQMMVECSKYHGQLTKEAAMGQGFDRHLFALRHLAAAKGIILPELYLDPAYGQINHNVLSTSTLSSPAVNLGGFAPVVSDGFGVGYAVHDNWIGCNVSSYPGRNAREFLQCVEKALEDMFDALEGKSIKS

[5] = SUPPLEMENTARY: PAMPA permeability assay; format: physicochemical; conditions: read-out: Permeability
[6] = biological target: T3, Carnitine O-palmitoyltransferase 1, liver isoform (Rattus norvegicus, UniProt P32198); assay: (§2) SUPPLEMENTARY: Inhibition of Carnitine palmitoyltransferase 1, liver isoform
T3 sequence (P32198 whole entry): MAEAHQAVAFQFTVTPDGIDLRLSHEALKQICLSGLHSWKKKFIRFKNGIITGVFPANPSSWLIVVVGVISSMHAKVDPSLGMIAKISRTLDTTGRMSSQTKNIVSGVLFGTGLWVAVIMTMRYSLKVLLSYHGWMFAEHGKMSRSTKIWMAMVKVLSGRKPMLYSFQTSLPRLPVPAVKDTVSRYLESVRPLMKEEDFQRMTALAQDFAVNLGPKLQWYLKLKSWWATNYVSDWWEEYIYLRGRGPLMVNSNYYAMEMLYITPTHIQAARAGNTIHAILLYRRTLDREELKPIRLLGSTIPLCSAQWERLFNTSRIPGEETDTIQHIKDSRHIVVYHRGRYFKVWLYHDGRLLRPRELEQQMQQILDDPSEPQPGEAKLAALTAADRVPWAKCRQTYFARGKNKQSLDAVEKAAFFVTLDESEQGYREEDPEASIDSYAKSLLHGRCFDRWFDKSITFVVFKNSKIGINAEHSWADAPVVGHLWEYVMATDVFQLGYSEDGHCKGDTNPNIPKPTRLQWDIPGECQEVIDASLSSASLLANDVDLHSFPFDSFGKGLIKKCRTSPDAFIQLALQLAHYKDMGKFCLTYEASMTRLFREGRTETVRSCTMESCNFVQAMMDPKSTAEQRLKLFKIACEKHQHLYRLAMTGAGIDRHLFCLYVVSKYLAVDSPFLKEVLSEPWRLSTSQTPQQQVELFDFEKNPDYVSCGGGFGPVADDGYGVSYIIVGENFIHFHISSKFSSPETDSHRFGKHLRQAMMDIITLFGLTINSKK

[7] = biological target: T4, Carnitine O-palmitoyltransferase 1, liver isoform (Homo sapiens, UniProt P50416); assay: as §2
T4 sequence (P50416 whole entry): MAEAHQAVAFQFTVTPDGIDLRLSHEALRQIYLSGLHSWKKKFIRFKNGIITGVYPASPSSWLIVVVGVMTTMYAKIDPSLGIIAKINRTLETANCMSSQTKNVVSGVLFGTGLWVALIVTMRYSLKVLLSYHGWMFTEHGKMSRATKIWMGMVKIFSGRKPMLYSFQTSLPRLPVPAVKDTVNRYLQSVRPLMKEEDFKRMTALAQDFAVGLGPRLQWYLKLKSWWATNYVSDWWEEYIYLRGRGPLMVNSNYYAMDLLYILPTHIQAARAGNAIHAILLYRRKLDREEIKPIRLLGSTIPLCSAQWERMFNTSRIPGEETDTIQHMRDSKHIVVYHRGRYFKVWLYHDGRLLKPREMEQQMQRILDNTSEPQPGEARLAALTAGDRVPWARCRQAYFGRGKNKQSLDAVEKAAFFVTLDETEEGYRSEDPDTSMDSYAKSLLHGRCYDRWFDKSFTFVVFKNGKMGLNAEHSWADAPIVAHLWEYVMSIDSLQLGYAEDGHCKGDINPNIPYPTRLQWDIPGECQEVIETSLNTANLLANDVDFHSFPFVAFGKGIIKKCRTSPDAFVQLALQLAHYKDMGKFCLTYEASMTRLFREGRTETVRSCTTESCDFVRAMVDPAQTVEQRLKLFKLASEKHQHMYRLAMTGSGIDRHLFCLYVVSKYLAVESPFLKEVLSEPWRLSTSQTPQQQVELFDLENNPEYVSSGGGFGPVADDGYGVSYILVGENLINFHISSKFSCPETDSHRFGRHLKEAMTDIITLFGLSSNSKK

[8] = biological target: T5, Carnitine O-palmitoyltransferase 2, mitochondrial (Rattus norvegicus, UniProt P18886); assay: as §1
T5 sequence (P18886 whole entry): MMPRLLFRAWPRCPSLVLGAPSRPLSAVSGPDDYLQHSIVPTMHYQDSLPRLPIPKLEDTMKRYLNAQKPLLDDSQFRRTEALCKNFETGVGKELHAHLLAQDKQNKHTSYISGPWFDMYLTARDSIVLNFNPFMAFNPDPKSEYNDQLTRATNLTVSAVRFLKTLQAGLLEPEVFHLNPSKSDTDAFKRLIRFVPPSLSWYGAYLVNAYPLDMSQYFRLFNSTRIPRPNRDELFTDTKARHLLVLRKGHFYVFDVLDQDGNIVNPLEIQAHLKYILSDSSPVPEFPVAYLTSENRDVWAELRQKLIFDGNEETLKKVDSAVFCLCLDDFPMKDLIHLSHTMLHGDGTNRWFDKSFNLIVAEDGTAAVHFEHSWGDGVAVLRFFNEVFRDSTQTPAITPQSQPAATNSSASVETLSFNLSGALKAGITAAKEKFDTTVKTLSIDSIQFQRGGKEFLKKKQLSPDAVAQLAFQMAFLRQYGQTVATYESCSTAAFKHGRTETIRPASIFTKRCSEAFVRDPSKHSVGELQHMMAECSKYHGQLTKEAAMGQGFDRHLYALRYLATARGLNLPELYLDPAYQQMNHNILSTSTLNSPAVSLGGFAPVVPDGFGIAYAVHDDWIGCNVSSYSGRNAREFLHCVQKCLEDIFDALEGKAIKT

| SMILES | IC50 [1] [µM] | logD [2] | solubility kinetic [3] [µg/mL] | IC50 [4] [µM] | Papp [5] [×10⁻⁶ cm/s] | IC50 [6] [µM] | IC50 [7] [µM] | IC50 [8] [µM] |
| --- | --- | --- | --- | --- | --- | --- | --- | --- |
| O=C(COc1ccccc1)N1CCCCC1c1cc(-c2ccccc2)n[nH]1 (centres undefined) | > 100 | 3.63 | 7 (≈ 19.4 µM) | 60.6 | 0.53 | 0.375 | 0.159 |  |
| O=C(COc1ccccc1)N1CCCC[C@@H]1c1nc(-c2cccc(O)c2)no1 | > 100 | 3.24 | 7 (≈ 18.4 µM) | > 100 | 0.65 | 0.0979 | 0.0364 |  |
| COc1ccc(Cl)cc1S(=O)(=O)N1CCCCc2ccc(C(=O)Nc3ccc(C(=O)O)cc3)cc21 | 14.5 | 1.5 | 211 (≈ 410 µM) | 17.6 | 2.9 | 0.181 | 0.289 |  |
| NNC(=O)c1cccc(-c2n[nH]c([C@H]3CCCCN3C(=O)COc3ccccc3)n2)c1 | > 100 | 1.65 | 87 (≈ 207 µM) | 23.5 | 2.02 | 1.63 | 0.264 |  |
| CS(=O)(=O)c1ccc(-c2csc([C@H]3CCCCN3C(=O)COc3ccccc3)n2)cc1 | 6.12 | > 3 | 1 (≈ 2.19 µM) | 1.86 | 2.11 | 0.327 |  | > 100 |
| N#Cc1ccc(-c2csc([C@H]3CCCCN3C(=O)COc3ccccc3)n2)cc1 | > 100 | > 3 | < 1 | 41.6 | 1.95 | 0.245 |  | > 100 |
| O=C(COc1ccccc1)N1CCCC[C@@H]1c1nc(-c2ccc(Cl)nc2)cs1 | > 100 | > 3 | 1 (≈ 2.42 µM) | 62.1 | 1.25 | 0.305 |  | > 100 |
| CC(=O)Nc1ccc(-c2nc([C@H]3CCCCN3C(=O)COc3ccccc3)cs2)cc1 | > 100 | 3.72 | 1 (≈ 2.3 µM) | > 100 | 1.23 | 0.179 |  | > 100 |
| O=C(COc1ccccc1)N1CCCC[C@@H]1c1csc(-c2ccc(C(F)(F)F)nc2)n1 | > 100 | > 3 | < 1 | > 100 | 1.31 | 0.985 |  | > 100 |
| Cc1ccc(-c2nc([C@H]3CCCCN3C(=O)COc3ccccc3)cs2)cn1 | 36 | > 3 | 37 (≈ 94 µM) | 24.3 | 2.07 | 0.0605 |  | 88.3 |
| COc1ccc(-c2nc([C@H]3CCCCN3C(=O)COc3ccccc3)cs2)cn1 | > 100 | > 3 | 2 (≈ 4.88 µM) | 58.9 | 0.3 | 0.108 |  | > 100 |
| O=C(COc1ccccc1)N1CCCC[C@@H]1c1csc(-c2ccccn2)n1 | > 100 | > 3 | 18 (≈ 47.4 µM) | > 100 | 4.83 | 0.108 |  | > 100 |
